Data taken from US20230255906A1, “Targeting Serpin B9 in Cancer” (The Brigham and Women`s Hospital, Inc., priority 2020, published 2023).

system: B16 melanoma cells; experiment: Caspase-3 activity assay (EnzChek Caspase-3 Assay Kit), caspase-3 induction in tumor cells; type: cell-based, mouse; details: not given; further: test concentration or dose not given here
From the text: The EnzChek® Caspase-3 Assay Kit was used to detect apoptosis by assaying for increases in caspase-3 activities. The basis for the assay was rhodamine 110 bis-(N-CBZ-L-aspartyl-L-glutamyl-L-valyl-L-aspartic acid amide) (Z-DEVD-R110). This substrate is a bisamide derivative of rhodamine 110 (R110) containing DEVD peptides covalently linked to each of R110's amino groups, thereby suppressing the dye's visible absorption and its fluorescence. Upon enzymatic cleavage, the nonfluorescent bisamide substrate is converted in a two-step process first to a fluorescent monoamide and then to an even more fluorescent R110.
At least 1×10^6 cells of the lysate were used for each reaction. B16 cells were treated with compounds to induce apoptosis. A negative control was prepared by incubating cells in the absence of compounds. The cells were incubated with compounds for 24 hrs and washed in PBS. Each cell sample or control was resuspended in 50 μL of the 1×cell lysis buffer. Cells were lysed by incubating on ice for 30 minutes, and the lysed cells were centrifuged to pellet the cellular debris. 50 μL of the supernatant was transferred from each sample to individual microplate wells. 50 μL of the 1× cell lysis buffer was used as a no-enzyme control to determine the background fluorescence of the substrate. 50 μL of the 2×substrate working solution was added to each sample and control. The microplate was covered, and the samples were incubated at room temperature for approximately 30 minutes. The fluorescence was measured by a fluorescence microplate reader (excitation/emission ˜496/520 nm) using excitation and emission filters.
The ability of this small molecule inhibitor to inhibit intracellular Sb9 was then evaluated. As a marker for cell penetration, the induction of caspase-3 activity in B16 melanoma cells as a surrogate marker for increased GrB activity was measured.
The induction of caspase-3 activity in B16 melanoma cells as a surrogate marker for increased GrB activity was also measured for other small molecules (compounds of Formulas (V) and (VI) as described herein).

| SMILES | Ratio of caspase-3 activity to Formula (III) |
| --- | --- |
| CN(Cc1ccn[nH]1)C(=O)c1ccc2oc(-c3ccc(C(F)(F)F)cc3)nc2c1 [N-methyl-N-(1H-pyrazol-5-ylmethyl)-2-[4-(trifluoromethyl)phenyl]-1,3-benzoxazole-5-carboxamide] | 0.1414 |
| CN(CC(O)CO)C(=O)c1ccc2oc(-c3ccc(C(F)(F)F)cc3)nc2c1 (stereo not drawn) [N-(2,3-dihydroxypropyl)-N-methyl-2-[4-(trifluoromethyl)phenyl]-1,3-benzoxazole-5-carboxamide] | 0.135 |
| CCN1CCN(C(=O)c2ccc3nc(-c4cccc(OC)c4)oc3c2)[C@@H](C)C1=O [(3S)-1-ethyl-4-{[2-(3-methoxyphenyl)-1,3-benzoxazol-6-yl]carbonyl}-3-methyl-2-piperazinone] | 0.1434 |
| O=C(c1ccc2oc(-c3cccc(F)c3)nc2c1)N1CCOc2ccccc2C1 [4-{[2-(3-fluorophenyl)-1,3-benzoxazol-5-yl]carbonyl}-2,3,4,5-tetrahydro-1,4-benzoxazepine] | 0.1627 |
| CCN(CCN(C)C)C(=O)c1cnc2c(c1)nc(-c1ccccc1Cl)n2C [2-(2-chlorophenyl)-N-[2-(dimethylamino)ethyl]-N-ethyl-3-methyl-3H-imidazo[4,5-b]pyridine-6-carboxamide] | 1.106 |
| CC(C)N(CCO)C(=O)c1ccc2oc(-c3ccc(C(F)(F)F)cc3)nc2c1 [N-(2-hydroxyethyl)-N-isopropyl-2-[4-(trifluoromethyl)phenyl]-1,3-benzoxazole-5-carboxamide] | 0.1324 |
| O=C(NCCn1cccn1)c1ccc2oc(-c3cccc(F)c3)nc2c1 [2-(3-fluorophenyl)-N-[2-(1H-pyrazol-1-yl)ethyl]-1,3-benzoxazole-5-carboxamide] | 0.4693 |
| COc1cccc(-c2nc3ccc(C(=O)N4CCOC(C(N)=O)C4)cc3o2)c1 (stereo not drawn) [4-{[2-(3-methoxyphenyl)-1,3-benzoxazol-6-yl]carbonyl}morpholine-2-carboxamide] | 0.1611 |
| COc1cccc(-c2nc3ccc(C(=O)NCC4CCCCO4)cc3o2)c1 (stereo not drawn) [2-(3-methoxyphenyl)-N-(tetrahydro-2H-pyran-2-ylmethyl)-1,3-benzoxazole-6-carboxamide] | 1.425 |
| O=C(c1ccc2nc(-c3ccccc3)oc2c1)N1C[C@@H](F)C[C@H]1CO [[(2S,4S)-4-fluoro-1-(2-phenyl-1,3-benzoxazole-6-carbonyl)pyrrolidin-2-yl]methanol] | 0.09723 |
| CN(Cc1cccnc1)C(=O)c1ccc2oc(-c3ccc(C(F)(F)F)cc3)nc2c1 [N-methyl-N-(3-pyridinylmethyl)-2-[4-(trifluoromethyl)phenyl]-1,3-benzoxazole-5-carboxamide] | 0.1669 |
| COc1cccc(-c2nc3ccc(C(=O)NCC4CCOCC4)cc3o2)c1 [2-(3-methoxyphenyl)-N-(tetrahydro-2H-pyran-4-ylmethyl)-1,3-benzoxazole-6-carboxamide] | 0.09286 |
| COC(=O)C1CCN(C(=O)c2ccc3nc(-c4cccc(OC)c4)oc3c2)CC1 [methyl 1-{[2-(3-methoxyphenyl)-1,3-benzoxazol-6-yl]carbonyl}-4-piperidinecarboxylate] | 0.1376 |
| COc1cccc(-c2nc3ccc(C(=O)N(C)Cc4cc(C)on4)cc3o2)c1 [2-(3-methoxyphenyl)-N-methyl-N-[(5-methylisoxazol-3-yl)methyl]-1,3-benzoxazole-6-carboxamide] | 0.2402 |
| CCOC(=O)CCNC(=O)c1ccc2oc(-c3cccc(F)c3)nc2c1 [ethyl N-{[2-(3-fluorophenyl)-1,3-benzoxazol-5-yl]carbonyl}-beta-alaninate] | 0.09329 |
| COc1cccc(-c2nc3ccc(C(=O)N4CCC(N(C)C)C4)cc3o2)c1 (stereo not drawn) [1-{[2-(3-methoxyphenyl)-1,3-benzoxazol-6-yl]carbonyl}-N,N-dimethyl-3-pyrrolidinamine] | 0.9908 |
| COc1cccc(-c2nc3ccc(C(=O)N(C)CCC4CCCCO4)cc3o2)c1 (stereo not drawn) [2-(3-methoxyphenyl)-N-methyl-N-[2-(tetrahydro-2H-pyran-2-yl)ethyl]-1,3-benzoxazole-6-carboxamide] | 0.1405 |
| CCN(CCO)C(=O)c1ccc2oc(-c3ccc(C(F)(F)F)cc3)nc2c1 [N-ethyl-N-(2-hydroxyethyl)-2-[4-(trifluoromethyl)phenyl]-1,3-benzoxazole-5-carboxamide] | 0.1437 |
| O=C(NCCO)c1ccc2oc(-c3ccc(C(F)(F)F)cc3)nc2c1 [N-(2-hydroxyethyl)-2-[4-(trifluoromethyl)phenyl]-1,3-benzoxazole-5-carboxamide] | 0.3843 |
| CN(CCN1CCCCC1)C(=O)c1ccc2oc(-c3cccc(F)c3)nc2c1 [2-(3-fluorophenyl)-N-methyl-N-[2-(1-piperidinyl)ethyl]-1,3-benzoxazole-5-carboxamide] | 0.1405 |

same assay, conditions: relative to compound of Formula (III)

| SMILES | Caspase-3 induction, Normalized to Formula (III) (%) |
| --- | --- |
| CN(C)c1nc2c(C(=O)N3CCCC3)cccc2o1 [N,N-dimethyl-4-(pyrrolidine-1-carbonyl)-1,3-benzoxazol-2-amine] | −22.9856% |
| COCCCNC(=O)c1cccc2oc(N(C)C)nc12 [2-(dimethylamino)-N-(3-methoxypropyl)-1,3-benzoxazole-4-carboxamide] | −31.049% |
| CCN(C)C(=O)c1cc(OC)c(OC)cc1Br [2-bromo-N-ethyl-4,5-dimethoxy-N-methylbenzamide] | −74.0106% |
| O=C(Cc1ccc2ocnc2c1)NCc1ccccc1 [2-(1,3-benzoxazol-5-yl)-N-benzylacetamide] | −34.4942% |
| CCOc1ccc(C(=O)NC2CCCC2)cc1O [N-cyclopentyl-4-ethoxy-3-hydroxybenzamide] | 4.1370% |
| COCCCNC(=O)Cc1ccc2ocnc2c1 [2-(1,3-benzoxazol-5-yl)-N-(3-methoxypropyl)acetamide] | −31.2011% |
| COc1cc(Br)c(C(=O)N2CCCC2)cc1OC [1-(2-bromo-4,5-dimethoxybenzoyl)pyrrolidine] | 18.4794% |
| Cc1cc(O)c(O)cc1C(=O)NCc1ccccc1 [N-benzyl-4,5-dihydroxy-2-methylbenzamide] | −43.6184% |
| CCN(C)C(=O)c1ccc2nc(C3CCCO3)oc2c1 (stereo not drawn) [N-ethyl-N-methyl-2-(oxolan-2-yl)-1,3-benzoxazole-6-carboxamide] | 8.3538% |
| O=C(c1ccc2nc(C(F)(F)C(F)(F)F)oc2c1)N1CCCC1 [2-(1,1,2,2,2-pentafluoroethyl)-6-(pyrrolidine-1-carbonyl)-1,3-benzoxazole] | −38.2832% |
| COc1cc(C(=O)NCCN(C)C)cc(OC)c1O [N-[2-(dimethylamino)ethyl]-4-hydroxy-3,5-dimethoxybenzamide] | −5.767% |
| COc1cc(C(=O)NCC2CCOCC2)ccc1OC(C)C [3-methoxy-N-[(oxan-4-yl)methyl]-4-(propan-2-yloxy)benzamide] | −66.2788% |
| O=C(NCc1ccccc1)c1ccc2nc(C3CCCCC3)oc2c1 [N-benzyl-2-cyclohexyl-1,3-benzoxazole-6-carboxamide] | −61.2418% |
| CN(C)c1nc2c(C(=O)NCc3ccccc3)cccc2o1 [N-benzyl-2-(dimethylamino)-1,3-benzoxazole-4-carboxamide] | 61.2163% |
| COc1cc(Br)c(C(=O)NCC(C)C)cc1OC [2-bromo-4,5-dimethoxy-N-(2-methylpropyl)benzamide] | −58.9646% |
| O=C(NC1CCCC1)c1ccc2nc(C3CCCCC3)oc2c1 [2-cyclohexyl-N-cyclopentyl-1,3-benzoxazole-6-carboxamide] | 26.2507% |
| CCN(C)C(=O)c1ccc2nc(C3CC3)oc2c1 [2-cyclopropyl-N-ethyl-N-methyl-1,3-benzoxazole-6-carboxamide] | 33.9690% |
| COc1cc(C(=O)NCc2ccccc2)cc(OC)c1O [N-benzyl-4-hydroxy-3,5-dimethoxybenzamide] | −17.7065% |
| CCOc1ccc(C(=O)NCC2CCOCC2)cc1O [4-ethoxy-3-hydroxy-N-[(oxan-4-yl)methyl]benzamide] | −30.8469% |
| O=C(c1ccc2nc(S)oc2c1)N1CCCC1 [6-(pyrrolidine-1-carbonyl)-1,3-benzoxazole-2-thiol] | −30.7254% |
| COCCCNC(=O)c1cc(OC)c(O)c(OC)c1 [4-hydroxy-3,5-dimethoxy-N-(3-methoxypropyl)benzamide] | −23.5938% |
| CN(C)c1nc2cccc(C(=O)NCc3ccccc3)c2o1 [N-benzyl-2-(dimethylamino)-1,3-benzoxazole-7-carboxamide] | −26.8974% |
